Data taken from ChEMBL document CHEMBL1132848, “1H-pyrazole-1-carboxamidines: new inhibitors of nitric oxide synthase” (Bioorg Med Chem Lett, 2000).

How the values were obtained:
[1] = molecular target: T1, Nitric oxide synthase 1 (Rattus norvegicus, UniProt P29476); assay: Inhibition against neuronal Nitric Oxide Synthase(nNOS)
[2] = Selectivity for neuronal(nNOS) and induced Nitric Oxide Synthase(iNOS); set-up: reference not given here
[3] = Selectivity for neuronal (nNOS) and endothelial Nitric Oxide Synthase(eNOS); set-up: reference not given here
[4] = molecular target: T2, Nitric oxide synthase, inducible (Mus musculus, UniProt P29477); assay: Inhibition against induced Nitric Oxide Synthase(iNOS)
T2 sequence (P29477 whole entry): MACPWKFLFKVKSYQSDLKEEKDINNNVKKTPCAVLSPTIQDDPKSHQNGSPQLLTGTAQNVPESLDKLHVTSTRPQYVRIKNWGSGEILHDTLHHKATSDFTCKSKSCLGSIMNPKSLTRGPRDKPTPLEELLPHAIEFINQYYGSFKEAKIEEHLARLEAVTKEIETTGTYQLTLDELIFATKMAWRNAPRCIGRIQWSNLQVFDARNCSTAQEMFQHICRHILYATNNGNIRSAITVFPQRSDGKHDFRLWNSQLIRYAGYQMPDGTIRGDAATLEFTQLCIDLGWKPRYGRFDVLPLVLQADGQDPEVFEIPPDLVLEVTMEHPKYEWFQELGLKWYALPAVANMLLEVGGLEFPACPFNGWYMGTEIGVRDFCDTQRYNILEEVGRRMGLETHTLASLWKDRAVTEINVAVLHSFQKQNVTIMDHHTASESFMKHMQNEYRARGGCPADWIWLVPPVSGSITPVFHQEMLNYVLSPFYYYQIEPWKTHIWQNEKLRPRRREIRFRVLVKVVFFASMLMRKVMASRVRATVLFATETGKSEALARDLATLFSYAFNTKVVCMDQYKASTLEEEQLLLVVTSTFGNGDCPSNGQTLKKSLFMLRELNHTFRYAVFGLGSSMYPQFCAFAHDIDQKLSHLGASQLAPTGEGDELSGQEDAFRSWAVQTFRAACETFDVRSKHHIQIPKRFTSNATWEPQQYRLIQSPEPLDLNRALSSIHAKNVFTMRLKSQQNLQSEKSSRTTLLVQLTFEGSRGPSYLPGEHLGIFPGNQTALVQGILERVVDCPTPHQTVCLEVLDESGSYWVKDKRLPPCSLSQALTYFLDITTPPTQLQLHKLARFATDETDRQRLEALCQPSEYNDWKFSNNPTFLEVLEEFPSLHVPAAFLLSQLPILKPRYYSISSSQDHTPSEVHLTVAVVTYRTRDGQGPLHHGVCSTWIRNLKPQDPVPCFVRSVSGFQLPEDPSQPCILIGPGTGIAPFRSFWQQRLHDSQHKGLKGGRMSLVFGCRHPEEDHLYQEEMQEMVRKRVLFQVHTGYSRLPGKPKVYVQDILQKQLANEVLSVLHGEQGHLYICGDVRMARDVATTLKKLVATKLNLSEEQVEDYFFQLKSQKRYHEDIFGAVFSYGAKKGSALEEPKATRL

[5] = molecular target: T3, Nitric oxide synthase 3 (Bos taurus, UniProt P29473); assay: Inhibition against endothelial Nitric Oxide Synthase(eNOS)
T3 sequence (P29473 whole entry): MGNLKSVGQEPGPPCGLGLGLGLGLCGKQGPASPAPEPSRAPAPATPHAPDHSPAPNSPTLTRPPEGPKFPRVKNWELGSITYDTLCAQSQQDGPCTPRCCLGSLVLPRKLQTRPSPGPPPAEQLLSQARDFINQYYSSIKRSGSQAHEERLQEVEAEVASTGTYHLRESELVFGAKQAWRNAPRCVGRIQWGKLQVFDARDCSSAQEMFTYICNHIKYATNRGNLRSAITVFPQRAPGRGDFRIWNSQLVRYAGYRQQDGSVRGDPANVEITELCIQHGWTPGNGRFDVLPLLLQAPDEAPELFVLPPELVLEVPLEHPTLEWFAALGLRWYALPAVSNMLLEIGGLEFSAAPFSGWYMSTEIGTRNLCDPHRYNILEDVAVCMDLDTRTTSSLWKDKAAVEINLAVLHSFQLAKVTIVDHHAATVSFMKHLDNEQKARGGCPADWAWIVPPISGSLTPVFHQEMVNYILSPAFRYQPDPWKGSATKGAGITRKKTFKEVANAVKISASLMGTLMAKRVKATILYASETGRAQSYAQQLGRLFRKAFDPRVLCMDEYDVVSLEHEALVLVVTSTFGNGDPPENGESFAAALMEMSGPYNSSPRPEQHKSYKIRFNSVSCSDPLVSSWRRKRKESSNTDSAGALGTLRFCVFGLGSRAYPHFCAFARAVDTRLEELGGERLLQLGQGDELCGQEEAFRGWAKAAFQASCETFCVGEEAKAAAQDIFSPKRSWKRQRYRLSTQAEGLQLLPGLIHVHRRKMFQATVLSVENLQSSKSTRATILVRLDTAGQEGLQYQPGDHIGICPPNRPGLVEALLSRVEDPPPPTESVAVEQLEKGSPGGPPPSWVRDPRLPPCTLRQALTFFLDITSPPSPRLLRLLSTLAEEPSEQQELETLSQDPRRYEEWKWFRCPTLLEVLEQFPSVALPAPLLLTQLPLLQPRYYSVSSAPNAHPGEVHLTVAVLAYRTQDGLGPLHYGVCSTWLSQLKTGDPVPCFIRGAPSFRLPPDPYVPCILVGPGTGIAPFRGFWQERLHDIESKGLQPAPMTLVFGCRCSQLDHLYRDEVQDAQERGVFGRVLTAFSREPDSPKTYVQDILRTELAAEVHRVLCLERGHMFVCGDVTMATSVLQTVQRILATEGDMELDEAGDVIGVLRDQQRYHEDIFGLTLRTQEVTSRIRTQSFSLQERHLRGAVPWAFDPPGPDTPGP

[6] = molecular target: T1, Nitric oxide synthase 1; assay: (§1) Time dependent inhibition against neuronal Nitric Oxide Synthase(nNOS)
[7] = molecular target: Nitric oxide synthase 1 (Rattus norvegicus) (UniProt P29476); assay: as §1
Chain of Nitric oxide synthase 1 (Rattus norvegicus) (P29476 whole entry): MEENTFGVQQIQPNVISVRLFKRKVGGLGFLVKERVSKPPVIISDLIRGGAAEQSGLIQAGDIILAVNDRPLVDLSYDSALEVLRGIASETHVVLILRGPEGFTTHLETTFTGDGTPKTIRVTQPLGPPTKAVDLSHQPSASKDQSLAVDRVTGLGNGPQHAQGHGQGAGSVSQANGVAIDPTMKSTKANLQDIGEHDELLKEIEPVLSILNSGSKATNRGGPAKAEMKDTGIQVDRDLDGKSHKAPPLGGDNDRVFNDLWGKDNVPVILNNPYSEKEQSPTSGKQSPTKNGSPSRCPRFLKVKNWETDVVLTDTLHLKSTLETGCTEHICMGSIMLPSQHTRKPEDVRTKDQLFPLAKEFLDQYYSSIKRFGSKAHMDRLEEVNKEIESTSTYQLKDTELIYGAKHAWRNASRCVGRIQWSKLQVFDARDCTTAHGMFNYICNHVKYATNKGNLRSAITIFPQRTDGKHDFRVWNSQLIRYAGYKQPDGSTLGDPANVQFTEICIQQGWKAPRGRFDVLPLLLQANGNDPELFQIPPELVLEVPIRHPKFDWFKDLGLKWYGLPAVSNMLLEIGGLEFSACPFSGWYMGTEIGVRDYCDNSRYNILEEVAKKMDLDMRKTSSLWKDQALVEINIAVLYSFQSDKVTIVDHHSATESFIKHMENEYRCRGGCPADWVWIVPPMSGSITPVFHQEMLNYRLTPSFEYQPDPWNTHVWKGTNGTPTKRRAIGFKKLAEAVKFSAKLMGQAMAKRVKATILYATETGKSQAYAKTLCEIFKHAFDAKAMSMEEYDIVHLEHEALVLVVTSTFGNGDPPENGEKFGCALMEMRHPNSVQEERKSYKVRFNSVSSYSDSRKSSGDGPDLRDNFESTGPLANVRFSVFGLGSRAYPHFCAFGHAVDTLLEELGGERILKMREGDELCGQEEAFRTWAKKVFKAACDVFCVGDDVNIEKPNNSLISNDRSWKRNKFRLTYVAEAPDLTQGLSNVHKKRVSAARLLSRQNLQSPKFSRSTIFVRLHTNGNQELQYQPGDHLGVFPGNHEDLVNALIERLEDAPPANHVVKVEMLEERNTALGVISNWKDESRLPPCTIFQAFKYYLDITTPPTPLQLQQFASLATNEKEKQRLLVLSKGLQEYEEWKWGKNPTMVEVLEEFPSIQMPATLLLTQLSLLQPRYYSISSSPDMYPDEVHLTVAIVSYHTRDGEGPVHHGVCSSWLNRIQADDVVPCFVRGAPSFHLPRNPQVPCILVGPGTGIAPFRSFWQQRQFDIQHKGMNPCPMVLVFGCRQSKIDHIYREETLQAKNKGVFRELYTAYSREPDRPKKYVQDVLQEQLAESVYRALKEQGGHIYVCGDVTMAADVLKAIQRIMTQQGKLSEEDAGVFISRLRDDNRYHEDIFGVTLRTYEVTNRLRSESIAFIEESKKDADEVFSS

T1 sequence (P29476 whole entry): as above

| SMILES | Ki [1] [µM] | Ratio [2] | Ratio [3] | Ki [4] [µM] | Ki [5] [µM] | Ki [6] [µM] | K inact [7] [min⁻¹] |
| --- | --- | --- | --- | --- | --- | --- | --- |
| CCCC/N=C(\N)NCCC | 700 | 1.1 | 0.9 | 780 | 650 |  |  |
| CCCCC/N=C(\N)n1cccn1 | 60 | 0.8 | 14 | 50 | 700 |  |  |
| Cc1cnn(C(=N)N)c1 | 12 | 0.3 | 16 | 3 | 190 |  |  |
| N=C(Nc1cccc(CN)c1)c1ccco1 |  |  |  | 0.16 |  |  |  |
| Cc1ccn(C(=N)N)n1 | 8 | 1.1 | 13 | 9 | 100 |  |  |
| Cc1cc(C)n(C(=N)N)n1 | 350 | 2.1 | 4.3 | 750 | 1500 |  |  |
| N=C(Nc1cccc(CN)c1)c1cccs1 |  |  |  | 0.12 | 0.46 |  |  |
| CC(C)C/N=C(\N)n1cccn1 | 45 | 3.3 | 4 | 150 | 180 |  |  |
| N=C(N)n1cccn1 | 0.4 | 1.8 | 1.3 | 0.7 | 0.5 |  |  |

More lines, now with the values ahead:

| Ki [1] [µM] | Ratio [2] | Ratio [3] | Ki [4] [µM] | Ki [5] [µM] | Ki [6] [µM] | K inact [7] [min⁻¹] | SMILES |
| --- | --- | --- | --- | --- | --- | --- | --- |
| 50 | 1.6 | 2.4 | 80 | 120 |  |  | N=C(NC1CC1)n1cccn1 |
| 2 | 6 | 100 | 12 | 200 |  |  | N=C(Nc1cccc(CN)c1)n1cccn1 |
| 10 | 2.2 | 8 | 22 | 80 |  |  | N=C(NCC1CC1)n1cccn1 |
| 14 | 1 | 1.8 | 14 | 25 |  |  | CCCC/N=C(\N)n1cccn1 |
| 6 | 8.3 | 77 | 50 | 460 |  |  | NCCCC/N=C(\N)n1cccn1 |
| 3 | 1.7 | 3 | 5 | 9 | 33 | 0.024 | CCC/N=C(\N)n1cccn1 |
